From US7381745B2, “Ligands for metabotropic glutamate receptors and inhibitors of NAALADase” (Georgetown University, priority 1999, dated 2008)
Values joined by “and” are separate entries in the source; they are usually repeats but may differ in a detail not shown here. Equal entries are not always repeated. Where two headings read alike, the source gives them in different places. Residues, ends and D or L forms follow the SMILES beside them.

Legend:
[1] = biological target: T1, mGluR3 (Rattus norvegicus, UniProt P31422); test: mGluR3 receptor activation (cell lines transfected with mGluRs); format: cell-based
T1 construct: expressed in transfected cells
Excerpt: Our studies began from the dipeptide N-acetyl-L-aspartate-L-glutamate (NAAG), a dipeptide that is quite abundant in the brain, and which is believed to act as a transmitter or co-transmitter in the central nervous system, much like glutamate itself. […] 69, 174(1997)]. Recently, a brain enzyme was identified that is specific for the cleavage of N-acetylated α-linked acidic dipeptides, and as a result this enzyme was named NAALADase [J. Biol. Chem., 1987, 262, 14498].

[2] = system: NMDA toxicity in cortical neuronal cells; test: NMDA toxicity model C: cortical neurons given medium from drug-treated glial cells, LDH release; format: cell-based, mice; conditions: for Neuroprotection against NMDA toxicity: model C protocol, 1 μM, LDH at 24 hours
Procedure: (§1) We have tested the validity of these statements using three models of NMDA toxicity in cultures of cortical neurons prepared from fetal mice. The first model (A) consists of using a culture containing neurons without glial cells. NMDA (75 μM) is applied for 10 min without or with the tested compound. Then the culture medium is replaced and cells are left for 24 hours to develop toxicity. The second model (B) involves the use of mice cortical neurons which are seeded on a layer of confluent glial cells (mostly astrocytes) prepared from cerebral cortex of newborn mice. The incubations are identical as in model A. The third model (C) separates the neuronal and glial cultures. Glial cultures are treated with the tested neuroprotective compound in order to induce the release of protective factors into the medium. In parallel, cultures of cortical neurons (without glia) are treated for 10 min with NMDA (20 μM). Then NMDA is washed out and the neurons are treated with the medium collected from the treated glial cells. In all cases toxicity is assessed 24 hours after NMDA treatment by measurements of lactate dehydrogenase (LDH) activity accumulated in the medium during this period of time.
This was done using a published protocol in which cultures of cortical glial cells are first treated with the test compound in order to induce the release of protective factors into the medium. In parallel, cultures of cortical neurons (without glia) are exposed for 10 min to the excitotoxic action of NMDA (20 μM). The NMDA is removed by washing, and the neurons are treated with the medium collected from the treated glial cells. Toxicity is then assessed 24 hours after NMDA treatment by the measurement of lactate dehydrogenase (LDH) activity, which serves as a marker for dying cells. […] Among the potent GCPII inhibitors tested, three compounds [HO2C(CH2)2CH(CO2H)CH2]2P(O)(OH), (S)-Glu-C(O)-(S)Glu, and (S)-Asp-C(O)-(S)Glu produced at 1 μM a similarly modest neuroprotection ranging from 21% to 31%. In contrast, the two Cys-containing compounds, (t-Bu)Cys-C(O)-(S)-Glu and (S)-Cys-C(O)-(S)-Glu, produced 69% and 50% neuroprotection, respectively. While the exact mechanism of this neuroprotective effect cannot be explained based entirely upon GCPII inhibition, these exciting results warrant further study in other models of in vitro toxicity, including the assessment of the compounds' effects in vivo.

[3] = system: transient middle cerebral artery occlusion; conditions: cited from earlier work
[4] = system: NMDA-induced cell death; conditions: other in vitro models; cited from earlier work
[5] = biological target: T2, rat GCPII (Rattus norvegicus, UniProt P70627); test: Inhibition of rat GCPII stably expressed in CHO cells; format: biochemical; conditions: for IC50: read-out: IC50 against expressed rat GCPII
T2 construct: expressed in transfected cells

[6] = biological target: T2, rat GCPII; conditions: cited from earlier work; for IC50: read-out: IC50 against GCPII
[7] = biological target: T1, mGluR3; conditions: cited from earlier work
[8] = system: NMDA toxicity in cultures of cortical neurons; test: NMDA toxicity model A: cortical neurons without glial cells, LDH release; format: cell-based, mice; conditions: 10 μM, NMDA 75 μM
Procedure: as §1

[9] = system: NMDA toxicity in mixed cultures of cortical neuronal-glial cells; test: NMDA toxicity model B: mixed cortical neuronal-glial cultures, LDH release; format: cell-based, mice
Procedure: as §1

[10] = biological target: NAALADase (Rattus norvegicus, UniProt P70627); test: NAALADase inhibition; format: biochemical; conditions: read-out: IC50 as NAALADase inhibitor
[11] = system: U-87 glioblastoma multiforme cells; test: Antiangiogenesis in s.c. glioblastoma xenografts (vWF staining); format: in vivo; conditions: 100 μM, 0.1 mL once daily into base of xenograft, harvested at 7 days
Procedure: Implanted xenografts were formed by s.c. inoculation with 2×10^6 U-87 glioblastoma multiforme cells mixed with 0.5 mg Matrigel. FN11 was dissolved in PBS to a concentration of either 10 or 100 μM, and injections (0.1 mL) were made once daily into the base of the s.c. implanted xenografts. The starting volumes of the tumors were approximately 250 mm^3. The results from this protocol are depicted in FIG. 15.
Control tumors and tumors grown under the conditions described in Example 21 were harvested at the end of 7 days, fixed in formalin and embedded in paraffin for sectioning. Tissue was stained immunohistochemically for von Willebrand's factor (vWF) to obtain a measure of vascularization. FIGS. 13 and 14 present the results of this protocol for the tumor treated with FN11 at 100 μM. FIG. 13 was taken at low magnification (100×), whereas FIG. 14 was taken at high magnification (400×).

T1 sequence (P31422 23-879): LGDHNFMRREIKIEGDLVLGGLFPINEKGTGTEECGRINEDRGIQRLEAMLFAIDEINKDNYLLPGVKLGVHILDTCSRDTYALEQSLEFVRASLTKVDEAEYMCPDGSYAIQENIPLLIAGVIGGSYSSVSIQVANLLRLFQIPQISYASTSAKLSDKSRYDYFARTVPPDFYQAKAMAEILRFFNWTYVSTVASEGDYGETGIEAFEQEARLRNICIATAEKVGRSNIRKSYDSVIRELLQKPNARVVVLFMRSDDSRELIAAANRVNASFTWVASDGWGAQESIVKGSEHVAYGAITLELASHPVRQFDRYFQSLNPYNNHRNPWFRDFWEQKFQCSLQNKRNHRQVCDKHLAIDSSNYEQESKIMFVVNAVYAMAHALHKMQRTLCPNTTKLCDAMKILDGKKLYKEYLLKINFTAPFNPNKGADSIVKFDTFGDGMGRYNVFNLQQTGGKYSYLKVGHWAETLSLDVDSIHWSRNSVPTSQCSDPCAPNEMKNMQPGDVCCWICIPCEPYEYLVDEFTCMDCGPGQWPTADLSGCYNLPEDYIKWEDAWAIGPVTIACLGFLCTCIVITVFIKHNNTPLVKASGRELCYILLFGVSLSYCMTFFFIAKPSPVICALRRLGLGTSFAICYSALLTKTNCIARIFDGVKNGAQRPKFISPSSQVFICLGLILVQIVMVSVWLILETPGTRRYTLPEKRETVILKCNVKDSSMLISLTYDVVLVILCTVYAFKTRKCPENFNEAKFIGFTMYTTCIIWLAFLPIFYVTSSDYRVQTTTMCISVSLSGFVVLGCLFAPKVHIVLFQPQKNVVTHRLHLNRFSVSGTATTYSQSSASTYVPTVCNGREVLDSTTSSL
T2 sequence (P70627 whole entry): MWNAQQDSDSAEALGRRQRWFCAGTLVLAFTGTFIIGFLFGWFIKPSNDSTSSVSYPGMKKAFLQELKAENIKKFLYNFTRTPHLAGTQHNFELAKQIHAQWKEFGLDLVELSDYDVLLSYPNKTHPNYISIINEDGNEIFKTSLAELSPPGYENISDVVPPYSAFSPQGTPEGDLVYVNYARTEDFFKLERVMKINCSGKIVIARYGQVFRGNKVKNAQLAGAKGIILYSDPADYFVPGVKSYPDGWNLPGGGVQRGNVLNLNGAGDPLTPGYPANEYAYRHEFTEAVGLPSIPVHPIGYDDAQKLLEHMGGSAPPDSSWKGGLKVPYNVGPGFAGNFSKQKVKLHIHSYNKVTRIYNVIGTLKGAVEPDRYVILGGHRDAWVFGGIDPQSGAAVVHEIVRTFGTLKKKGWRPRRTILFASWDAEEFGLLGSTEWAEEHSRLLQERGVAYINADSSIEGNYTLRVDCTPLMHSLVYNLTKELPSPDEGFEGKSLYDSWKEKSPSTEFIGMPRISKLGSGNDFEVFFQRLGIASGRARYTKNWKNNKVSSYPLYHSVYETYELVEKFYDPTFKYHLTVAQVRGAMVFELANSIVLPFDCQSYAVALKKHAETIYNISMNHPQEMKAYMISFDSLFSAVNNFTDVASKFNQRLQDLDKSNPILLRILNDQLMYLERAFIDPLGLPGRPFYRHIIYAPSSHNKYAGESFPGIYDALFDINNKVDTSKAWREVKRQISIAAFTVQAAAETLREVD
Sequence of NAALADase (P70627 whole entry): as above

Question: Which “mGluR3 activity (in words)” value [1] does the source give for “2-(phosphomethyl)pentanedioic acid [PMPA, reference compound]” here?
Answer: act as an agonist at mGluR3

Question: What about the “Neuroprotection against NMDA toxicity” value ([2]; NMDA 20 μM) of the same compound?
Answer: about 25%

Question: And the “Neuroprotection (in words)” value ([2]; model C, compared with FN6 enantiomers)?
Answer: less effective

Question: And the “Glutamate and NAAG levels (in words)” value ([3]; rat MCAO model)?
Answer: decreased glutamate levels while increasing NAAG levels

Question: What about the “Protection against injury (in words)” value ([3]; rats, Slusher et al.) of the same compound?
Answer: significant protection against injury

Question: What about the “Neuroprotection against NMDA-induced cell death” value [4] of the same compound?
Answer: 16%

Question: For `O=C(O)C[C@H](NC(=O)N[C@@H](CC(=O)O)C(=O)O)C(=O)O` [PC103], which IC50 [5] is on record?
Answer: 3800 nM

Question: For `O=C(O)C[C@H](NC(=O)N[C@@H](CC(=O)O)C(=O)O)C(=O)O` (hydrate or solvate) [PC103], which melting point is on record?
Answer: > 142 °C

Question: Which “fold less potent than (S)Glu-C(O)-(S)Glu at GCPII” value [5] does the source give for `N[C@@H](CCC(=O)O)C(=O)N[C@@H](CCC(=O)O)C(=O)O` [(S)-Glu-(S)-Glu, reference compound] (H-Glu-Glu-OH) here?
Answer: 16 fold

Question: Which results are given for `O=C(O)CC[C@H](NC(=O)C(=O)N[C@@H](CCC(=O)O)C(=O)O)C(=O)O` [(S)-Glu-C(O)-C(O)-(S)-Glu]?
Answer: GCPII inhibitory activity (in words) [5]: inactive; inhibition of expressed rat GCPII ([5]; at 1 μM): 9% inbibition at 1 μM

Question: For `O=C(O)CCC(CC(=O)CC(CCC(=O)O)C(=O)O)C(=O)O` (stereo not shown) [A], which “mGluR3 activity (in words)” value [1] is on record?
Answer: retained significant mGluR3 activity

Question: Which results are given for `O=C(O)CC[C@H](NC(=O)NCC(=O)O)C(=O)O` [PC108]?
Answer: GCPII inhibitory activity (in words) [5]: inactive; inhibition at 1 µM ([5]; at 1 μM): 46%

Question: For `O=C(O)CC[C@@H](NC(=O)N[C@H](CCC(=O)O)C(=O)O)C(=O)O` [FN13], which Neuroprotection ([2]; model C, 100 μM) is on record?
Answer: about 20%

Question: For `O=C(NC(CS)C(=O)O)NC(CS)C(=O)O` [(S)-Cys-C(O)-(S)-Cys], which “GCPII inhibitory activity (in words)” value ([5]; tested at 1 μM) is on record?
Answer: Inactive at 1 μM

Question: Which “inhibition of GCPII” value ([6]; at 100 μM, dipeptide, published data for comparison) does the source give for `N[C@@H](CC(=O)O)C(=O)N[C@@H](CC(=O)O)C(=O)O` [(S)-Asp-(S)-Asp, reference compound] (H-Asp-Asp-OH) here?
Answer: 42% inhibition at 100 μM

Question: What about the IC50 ([6]; published data, ref. 6a) of the same compound?
Answer: 58000 nM

Question: For `CC(C)(C)NC(=O)N[C@@H](CCC(=O)O)C(=O)O` (hydrate or solvate) [PC113], which melting point is on record?
Answer: 108 to 110 °C

Question: For `CC(C)(C)SC[C@H](NC(=O)N[C@@H](CCC(=O)O)C(=O)O)C(=O)O` [PC120], which IC50 [5] is on record?
Answer: 101 ± 19.3 nM

Question: What about the Ki ([5]; read-out: Ki against GCPII) of the same compound?
Answer: ~100 nM

Question: And the “Neuroprotection against NMDA toxicity” value ([2]; NMDA 20 μM)?
Answer: 69%

Question: Which EC50 ([7]; cell lines transfected with mGluR1-6, read-out: EC50 for activation of mGluR3) does the source give for `CC(=O)N[C@@H](CC(=O)O)C(=O)N[C@@H](CCC(=O)O)C(=O)O` [NAAG, N-acetyl-L-aspartate-L-glutamate, reference compound] (Ac-Asp-Glu-OH) here?
Answer: 65000 ± 20000 nM

Question: With `CC(C)(C)NC(=O)N[C@@H](CCC(=O)O)C(=O)O` [PC113] as the compound, how does the “GCPII inhibitory activity (in words)” value [5] read?
Answer: inactive

Question: And the inhibition at 1 µM ([5]; at 1 μM)?
Answer: 10%

Question: Which results are given for `NC1(C(=O)O)CC2CC1C2C(=O)O` (stereo not shown) [ABHxD-I, 2-aminobicyclo 2.1.1 hexahe-2.5-dicarboxylic acid, reference compound]?
Answer: Protection against NMDA toxicity (in words) [8]: not able to protect against NMDA toxicity; Reduction of the toxic effect of NMDA ([9]; 10 μM, NMDA 75 μM): over 40%; Protection against NMDA toxicity (in words) ([2]; model C, 10 μM, NMDA 20 μM): as effective as in model B

Question: Which inhibition at 100 µM ([5]; read-out: inhibition of expressed rat GCPII) does the source give for `O=C(O)CC[C@H](NC(=O)N[C@H](CCC(=O)O)C(=O)O)C(=O)O` [FN16] here?
Answer: 97%

Question: For `O=C(O)CC[C@H](NC(=O)N[C@@H](CC(=O)O)C(=O)O)C(=O)O` [PC107], which IC50 ([5]; listed as (S)-Asp-C(O)-(S)-Glu) is on record?
Answer: 46 nM and 46.1 nM

Question: With `O=C(O)CCC(CP(=O)(O)CC(CCC(=O)O)C(=O)O)C(=O)O` (racemic) [FN6, 4,4′-phosphinicobis(butane-1,3-dicarboxylic acid)] as the compound, how does the IC50 [10] read?
Answer: 4 nM

Question: What about the Neuroprotection ([9]; 300 μM) of the same compound?
Answer: about 30%

Question: What about the IC50 ([6]; previous work, listed as PBBDA) of the same compound?
Answer: 21.7 ± 2.1 nM

Question: What about the IC50 ([6]; previous work, listed as [HO2C(CH2)2CH(CO2H)CH2]2P(O)(OH)) of the same compound?
Answer: 26 nM

Question: What about the EC50 ([7]; previous work, read-out: mGluR3 selective agonist potency) of the same compound?
Answer: ~30000 nM

Question: With `O=C(O)CC[C@H](NC(=O)N[C@@H](CS)C(=O)O)C(=O)O` [PC118] as the compound, how does the “GCPII inhibitory activity (in words)” value [5] read?
Answer: nearly as potent as (S)-Glu-C(O)-(S)-Glu

Question: What about the IC50 [5] of the same compound?
Answer: 72.4 ± 6.5 nM

Question: And the “Neuroprotection against NMDA toxicity” value ([2]; NMDA 20 μM)?
Answer: 50%

Question: What does the source list for `O=C(O)CC[C@H](NC(=O)N[C@@H](CCC(=O)O)C(=O)O)C(=O)O` [FN11]?
Answer: IC50 [5]: 47 nM; Vascularization of tumor (von Willebrand's factor staining) [11]: preponderance of avascular and low vascular areas
